Consider five molecules from patent publication US20080027082A1, “USE OF ADENOSINE A1 ANTAGONISTS IN RADIOCONTRAST MEDIA INDUCED NEPHROPATHY” (priority 2006, published 2008).

Data set [1] concerns radiocontrast media induced nephropathy. To be noted: Shammas, 2001, Welch, 2002, Huber; cited from earlier work.
Data set [2] has as its target PGP (Homo sapiens, UniProt P08183). The experiment in a line: PGP-factor (Table 1). The data set is classed as in vitro ADME.
Data set [3] is described as follows: Permeability (Table 1). In kind it is in vitro ADME.
The target of data set [4] is T1, adenosine A1 receptor (Homo sapiens, UniProt P30542).
T1 sequence (P30542 1-326): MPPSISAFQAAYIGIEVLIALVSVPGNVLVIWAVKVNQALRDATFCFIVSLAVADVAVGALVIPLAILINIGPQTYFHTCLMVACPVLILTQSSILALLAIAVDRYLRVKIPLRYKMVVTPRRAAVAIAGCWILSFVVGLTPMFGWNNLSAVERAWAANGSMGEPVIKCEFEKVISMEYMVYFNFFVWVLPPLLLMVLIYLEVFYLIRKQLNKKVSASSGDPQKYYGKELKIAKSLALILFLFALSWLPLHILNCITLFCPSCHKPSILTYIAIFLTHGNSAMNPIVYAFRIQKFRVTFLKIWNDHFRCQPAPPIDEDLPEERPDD
The experiment in a line: receptor binding and enzyme profiling in a wide range of assays. The source says:
(§1) The phosphodiesterase PDE4 inhibiting activity may be used for titration purposes of patients. The phosphodiesterase PDE4 inhibiting activity of the compounds described herein prevents overdosage of the selective A1 antagonist by alarming the patients with self-evident, non-serious signals like e.g. headache before serious events like e.g. CNS convulsion can occur.

In data set [5] the test system is radiocontrast media-dependent acute kidney failure. Briefly: diuresis and natriuresis following radiocontrast media (diatrizoate) in anesthetized rats. In kind it is in vivo, Sprague-Dawley rats. To be noted: for diuresis / sodium excretion: mean ± SEM. As for the experimental part:
The radiocontrast media-dependent acute kidney failure was induced using an experimental protocol based on that published by the group of Osswald,^22 Male Sprague-Dawley rats of approximately 300 g body weight were acclimatized for at least 1 week before the start of the chronic pretreatment with the nitric oxide synthase inhibitor N-nitro-L-arginine methyl ester (L-NAME for 7-9 weeks at a daily dose of 5 mg/kg). For the experiments, the overnight fasted rats (which had continued free access to drinking water) were anesthetized with Inactin (80 mg/kg, given i.p. as a bolus). Catheters were placed (i) in the trachea, (ii) in one jugular vein (for radiocontrast medium administration, and background saline infusion; see below), (iii) in the other jugular vein for vehicle or sunstance 1 administration, (iv) in the carotid artery for blood sampling, and part of the background saline infusion; see below), and (v) in the bladder for urine collection. The rats were kept on a heated table to maintain their body temperature at 37° C. After collecting urine samples for 60-90 min for baseline measurements, the animals received vehicle or substance 1 as follows: a loading bolus of 0.15, or 1.5 mg substance 1 per kg, or vehicle, in a volume of 1 mukg, was applied intravenously, followed by a continuous intravenous infusion at a rate of […] substance 1 per kg per min, or vehicle, in a volume of 11 μL/kg·min until the end of the experiment. With these dose regimens steady-state plasma levels of substance 1 were 59±23, and 314±36 ng/mL, respectively. Ten minutes after the start of the substance 1 (or vehicle) treatment, diatrizoate (meglumine salt, Urolux, 0.61 g diatrizoate/mL, corresponding to a total iodine content of 290 mg/mL, Sanochemia Diagnostics, Neuss, Germany), prewarmed at body temperature, was infused iv over 3 min at a dose of 2.55 mL/kg, corresponding to 740 mg iodine/kg (the timepoint of contrast medium administration was defined as t0). A background saline solution was infused from the beginning and maintained at a rate of ˜1.2 mL/h per 100 g until the end of the experiments (0.24 mL/h via the arterial catheter, and 0.96 mL/h via the venous line). This infusion was required to compensate for the volume loss due to the operation, and the subsequent blood sampling, but also to insure the patency of the arterial catheter between the blood sampling timepoints. Urine samples were collected according to the following schedule: baseline (60-90 min preceding the start of substance 1, or vehicle, administration), t0-30 min (0.5 h timepoint), 30-60 min (1 h timepoint), 60-120 min (2 h timepoint), and 120-180 min (3 h timepoint). Plasma samples were taken at the end of each of the above periods. The measured values of urine volume, and urine levels of Na^+ were used to calculate the rates of diuresis and natriuresis over the time intervals mentioned above.

For data set [6], the target named is phosphodiesterase PDE4. Briefly: phosphodiesterase PDE4 inhibition (enzyme profiling). To be noted: read-out: calculated pKi of the PDE4 inhibition (converted). In kind it is biochemical.
Source text: as §1

Data set [7] has as its system renal hemodynamics and oxygenation. Briefly: renal blood flow and oxygenation following radiocontrast media (iodixanol) in anesthetized rats. The data set is classed as in vivo, Wistar rats. On the procedure: The experimental protocol was based on a previously published methodology. The experiments were performed using adult male 3-4 months old Wistar rats. Body weight ranged from 250 to 400 g. The rats received a standard chow diet. Feeding and drinking was discontinued approx. 12 hours before the surgery. The animals were anesthetized by intraperitoneal injection of urethane solution ([…]; 6 ml per kg), and placed on a heated table to maintain body temperature at 37° C. throughout surgery and subsequent experiments. After an incision in the left groin the femoral artery was carefully prepared and cannulated to measure the mean arterial blood pressure. Another catheter was placed into the carotid artery for administration of contrast medium. Finally, an inflatable cuff was placed around the abdominal aorta above the origin of the renal arteries. A servo controlled inflation of the cuff allowed for the reduction and maintenance of the renal perfusion pressure at a preset levels. Two 500 μm diameter optical fibers were implanted into the cortex and the outer medulla of left kidney to determine local laser-Doppler fluxes and an ultrasound transit time flowprobe was placed around the renal artery of the same kidney to determine total kidney blood flow (RBF). Renal oxygen levels (oxygen partial pressure=pO2) was likewise determined locally (cortical and medullary pO2, respectively; OxyLite, Oxford Optronics). After implantation and stabilization, the experiment was started by measuring hemodynamic and oxygenation parameters under baseline conditions. Vehicle or substance 1 (5 mg/kg as an intravenous bolus) were then administered. New measurements were performed, and 30 min after vehicle or substance 1 administration, lodixanol (Visipaque 320; 1.5 mL i.a.; Amersham Buchier, Braunschweig, Germany), or vehicle was applied. The experimental groups were thus: 1. Vehicle+Vehicle (‘control’), Vehicle+Visipaque, and sunstance 1+Visipaque.

Data set [8] has as its system phosphodiesterases (PDE 1, 2, 3, 5 and 6). Briefly: inhibition of other phosphodiesterases (enzyme profiling). In kind it is biochemical. To be noted: relative to PDE4 inhibition.
Source text: as §1

A short description of data set [9]: steady-state plasma levels in anesthetized L-NAME pretreated rats. The data set is classed as in vivo, Sprague-Dawley rats. To be noted: rat. As for the experimental part:
The radiocontrast media-dependent acute kidney failure was induced using an experimental protocol based on that published by the group of Osswald,^22 Male Sprague-Dawley rats of approximately 300 g body weight were acclimatized for at least 1 week before the start of the chronic pretreatment with the nitric oxide synthase inhibitor N-nitro-L-arginine methyl ester (L-NAME for 7-9 weeks at a daily dose of 5 mg/kg). For the experiments, the overnight fasted rats (which had continued free access to drinking water) were anesthetized with Inactin (80 mg/kg, given i.p. as a bolus). Catheters were placed (i) in the trachea, (ii) in one jugular vein (for radiocontrast medium administration, and background saline infusion; see below), (iii) in the other jugular vein for vehicle or sunstance 1 administration, (iv) in the carotid artery for blood sampling, and part of the background saline infusion; see below), and (v) in the bladder for urine collection. The rats were kept on a heated table to maintain their body temperature at 37° C. […] The measured values of urine volume, and urine levels of Na^+ were used to calculate the rates of diuresis and natriuresis over the time intervals mentioned above.

[10] abbreviates: Low dose, 0.5 h after CM (diatrizoate).
Where [11] appears, read: Low dose, 1 h after CM (diatrizoate).
[12] abbreviates: Low dose, 2 h after CM (diatrizoate).
The mark [13] stands for this setting: Low dose, 3 h after CM (diatrizoate).
[14] abbreviates: high dose, 0.5 h after CM (diatrizoate).
The mark [15] stands for this setting: high dose, 1 h after CM (diatrizoate).
Setting [16] is: high dose, 2 h after CM (diatrizoate).
[17] abbreviates: high dose, 3 h after CM (diatrizoate).

Sequence of PGP (P08183 whole entry): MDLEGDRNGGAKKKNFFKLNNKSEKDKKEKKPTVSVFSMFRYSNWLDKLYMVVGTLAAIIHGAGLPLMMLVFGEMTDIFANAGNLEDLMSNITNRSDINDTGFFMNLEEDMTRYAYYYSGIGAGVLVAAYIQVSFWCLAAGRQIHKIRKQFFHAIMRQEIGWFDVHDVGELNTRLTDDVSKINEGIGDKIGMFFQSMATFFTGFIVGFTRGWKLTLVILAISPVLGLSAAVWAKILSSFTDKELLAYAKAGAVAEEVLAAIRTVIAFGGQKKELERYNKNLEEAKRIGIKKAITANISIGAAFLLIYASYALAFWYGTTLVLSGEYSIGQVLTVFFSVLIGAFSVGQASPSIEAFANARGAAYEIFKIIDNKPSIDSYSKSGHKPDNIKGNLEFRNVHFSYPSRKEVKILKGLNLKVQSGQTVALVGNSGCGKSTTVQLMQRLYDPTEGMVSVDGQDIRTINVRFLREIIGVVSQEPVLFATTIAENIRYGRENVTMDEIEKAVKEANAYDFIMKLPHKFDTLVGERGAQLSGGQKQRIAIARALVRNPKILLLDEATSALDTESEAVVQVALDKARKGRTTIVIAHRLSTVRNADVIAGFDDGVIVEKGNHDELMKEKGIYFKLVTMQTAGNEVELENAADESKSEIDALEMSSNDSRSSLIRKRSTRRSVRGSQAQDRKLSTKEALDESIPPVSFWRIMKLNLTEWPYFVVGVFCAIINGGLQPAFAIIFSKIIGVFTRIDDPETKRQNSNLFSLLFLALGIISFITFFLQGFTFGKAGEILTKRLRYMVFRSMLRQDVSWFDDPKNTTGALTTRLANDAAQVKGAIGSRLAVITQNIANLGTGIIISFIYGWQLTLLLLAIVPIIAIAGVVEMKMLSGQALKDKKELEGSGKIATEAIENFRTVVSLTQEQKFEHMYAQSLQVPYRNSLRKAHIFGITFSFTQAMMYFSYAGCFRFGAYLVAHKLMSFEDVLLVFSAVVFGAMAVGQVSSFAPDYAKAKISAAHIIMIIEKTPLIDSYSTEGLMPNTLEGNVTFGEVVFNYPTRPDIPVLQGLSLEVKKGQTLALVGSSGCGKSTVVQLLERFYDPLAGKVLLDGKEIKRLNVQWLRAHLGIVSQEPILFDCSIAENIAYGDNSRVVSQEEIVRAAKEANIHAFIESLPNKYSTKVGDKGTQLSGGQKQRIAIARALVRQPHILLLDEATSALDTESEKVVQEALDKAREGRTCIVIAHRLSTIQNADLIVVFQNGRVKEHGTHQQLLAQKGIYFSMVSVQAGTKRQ

In the case of `Cn1c(=O)c2[nH]cnc2n(C)c1=O` [Aminophylline], the “protection against radiocontrast media induced nephropathy” value in data set [1] was “does not appear to add a protective role”.
Molecule `CCCn1c(=O)c2[nH]c(C34CC5CC(CC3C5)C4)nc2n(CCC)c1=O` [KW3902, reference compound] gave a PGP-factor in [2] of 1.4. Besides, in [3], the “Permeability (%)” value is on record as 31.1%.
`CS(=O)(=O)O.OC1CCC(Nc2nc(-c3ccccc3)nc3[nH]ccc23)CC1` (stereo not drawn) [substance 1, 4-[(2-phenyl-7H-pyrrolo[2,3-o]pyrimidin-4-yl)amino]-trans-cyclohexanol methanesulfonate]: the PGP-factor in [2] is 1.5. Besides, in data set [4], the “conclusion from receptor binding and enzyme profiling” value is “selective adenosine A1 receptor ligand with some phosphodiesterase PDE4 inhibiting activity”. The diuresis is reported as 27.31 ± 2.36 mL per kg body weight per h in data set [5] (setting [10]); 3.87 ± 0.40 mL per kg body weight per h in data set [5] (setting [11]); 3.34 ± 0.42 mL per kg body weight per h in [5] (setting [12]); 3.54 ± 0.50 mL per kg body weight per h in data set [5] (setting [13]); 28.01 ± 2.02 mL per kg body weight per h in [5] (setting [14]); 4.97 ± 0.30 mL per kg body weight per h in data set [5] (setting [15]). Besides, the diuresis in [5] (setting [16]) is listed as 3.13 ± 0.27 mL per kg body weight per h; in [5] (setting [17]), 3.11 ± 0.36 mL per kg body weight per h. Besides, the sodium excretion in data set [5] (setting [10]) was 3039 ± 354 μmol per kg body weight per h; in data set [5] (setting [11]) it was 338 ± 81 μmol per kg body weight per h; in data set [5] (setting [12]), 613 ± 121 μmol per kg body weight per h; in data set [5] (setting [13]), 842 ± 121 μmol per kg body weight per h; in [5] (setting [14]), 3301 ± 306 μmol per kg body weight per h; in data set [5] (setting [15]) it was 520 ± 77 μmol per kg body weight per h. Further, the sodium excretion is reported as 591 ± 88 μmol per kg body weight per h in [5] (setting [16]) and 830 ± 91 μmol per kg body weight per h in data set [5] (setting [17]). Further, the “persistence of the stimulating effect on diuresis” value in data set [5] (after contrast medium (diatrizoate) administration) is reported as “at least 3 h”. For the same molecule, in data set [5] (after diatrizoate, throughout the experiment, not shown), the potassium excretion entry is “not relevantly affected”. In addition, the chloride excretion result in data set [5] (after diatrizoate, not shown) is “stimulated”. Also, the Ki in [6] is 750 nM. Also, the “renal cortical vascular conductance” value in data set [7] (substance 1 5 mg/kg iv + Visipaque (FIG. 4)) is recorded as “maintained this parameter at levels seen in the vehicle control group”. In data set [7] (substance 1 5 mg/kg iv + Visipaque, until the end of the experiment (FIG. 5)), the “cortical pO2” value is listed as “significant increase”. The “renal cortical blood flow” value in data set [7] (substance 1 5 mg/kg iv + Visipaque, vs. Vehicle+Visipaque, 20 min measurement (FIG. 3)) is “sustained and significant increase”. Moreover, in data set [7] (substance 1 5 mg/kg iv + Visipaque, not shown), the “effect on Visipaque-induced changes of medullary blood flow and medullary vascular conductance” value is “only partially (but significantly) prevented these effects”. Also, the “effect on the Visipaque-induced increase in mean arterial blood pressure” value in [7] (substance 1 5 mg/kg iv bolus 30 min before Visipaque 1.5 mL i.a., not shown) is “partially prevented”. In addition, the “hemodynamic parameters (arterial blood pressure, RBF) before the Visipaque challenge” value in data set [7] (substance 1 5 mg/kg iv bolus, not shown) is listed as “did not modify”. Besides, the “Permeability (%)” value in data set [3] amounted to 37.4%. Further, the “activities on other phosphodiesterases (PDE 1, 2, 3, 5 and 6), fold lower than on PDE4” value in [8] is “at least 25 fold”. Further, the steady-state plasma level in data set [9] (iv loading bolus 0.15 mg/kg, then infusion 1.5 pg per kg per min (so in the source)) stood at 59 ± 23 ng/mL; in [9] (iv loading bolus 1.5 mg/kg, then infusion 15 pg per kg per min (so in the source)) it was 314 ± 36 ng/mL.
With `CS(=O)(=O)O.NC(=O)[C@@H]1C[C@H](O)CN1c1nc(-c2ccccc2)nc2[nH]ccc12` [substance 2, (4S)-4-hydroxy-1-(2-phenyl-7H-pyrrolo[2,3-a]pyrimidin-4-yl)-L-prolinamide methanesulfonate], the PGP-factor in [2] was determined as 10.1. Also, the “Permeability (%)” value in [3] was found to be 27.0%.
In the case of `Cn1c(=O)c2[nH]cnc2n(C)c1=O` [theophylline], in data set [1], the “protection against radiocontrast media induced nephropathy” value is “effective”.
